From publication PMC8686256, “DZNep promotes mouse bone defect healing via enhancing both osteogenesis and osteoclastogenesis” (Stem Cell Research & Therapy, 2021)

Assays:
Assay type in all cases: cell-based, mouse
[1] = system: BMMs; assay: Immunofluorescence of podosome actin belt; settings: 25 nM, vs control
Experimental: BMMs in complete α-MEM with or without 25 nM DZNep were seeded in 6-well plates at a density of 1 × 10^5 cells/well and cultured for 6 days. Once the matured osteoclast could be observed, the plate was washed by PBS and then fixed with 4% paraformaldehyde. The 10 min 0.2% Triton X-PBS was then performed for permeabilizing. After three times washing by PBS, FITC-labeled phalloidin was added for 1 h in darkness to bounds with the cells F-actin ring. The nuclei were stained at RT for 5 min without light by 4′, 6-diamidino-2-phenylindole (DAPI). After the final PBS wash, the perimeter of the actin ring could be observed by the fluorescence microscope (Leica) and analyzed using ImageJ software (NIH, Bethesda, MD, USA).

[2] = system: c-FOS and NFATc1; assay: Western blotting of c-FOS and NFATc1 in BMMs
Experimental: To explore the variation of the proteins on long-term activated signaling, BMMs were cultured in α-MEM containing M-CSF (30 ng/ml) and RANKL (50 ng/ml) at a density of 2 × 10^5 cells/well on 6-well plates. After 24 h, the BMMs were treated with or without 25 nM DZNep for 0, 1, 3, and 5 days, and total protein was obtained, respectively, on these specific time points. To determine the effect of DZNep on the protein of short-time activated phosphorylated, RAW264.7 cells were cultured in α-MEM at a density of 5 × 10^5 cells/well on 6-well plates. One day later, the cells were treated with the serum-free α-MEM in the presence or absence of DZNEP for 3 hand then stimulated with 50 ng/mL RANKL for 0, 10, 20, 30, and 60 min. To determine the efficiency of EZH2 shRna, BMMs were cultured in α-MEM at a density of 5 × 10^5 cells/well on 6-well plates. One day later, the cells were treated with negative control shRNA or different EZH2 shRNA for 2 days. To determine the efficiency of Foxc1 siRna, BMMs were cultured in α-MEM at a density of 5 × 10^5 cells/well on 6-well plates. […] After TBST wash for 3 times, the secondary fluorescence antibodies were incubated without light for 1 h at room temperature and the reactivity was visualized by using Odyssey V3.0 image scanning (Li-COR. Inc., Lincoln, NE, USA). […]

[3] = system: primary BMSC; assay: CCK-8 cytotoxicity on BMSC; settings: 100 nM; 12, 48, and 96 h
[4] = system: BMMs and calvarial OB co-culture; assay: Osteoblasts and osteoclasts co-cultivation, ALP staining; settings: 7 days
Experimental: For the osteoblasts and osteoclasts co-culture system, calvarial OB isolated from day 1–3 pups were cultured for 24 h. Then the calvarial OB with complete α-MEM (α-MEM supplemented with 10% FBS, 1% penicillin/streptomycin) were seeded into 24-well plates at a density of 2 × 10^4 cells/well. After 3 days of cultivation, the medium was replaced by the complete α-MEM containing […] ascorbic acid and 5 mM β-glycerophosphate. On the same day, bone marrow monocytes were isolated from bone marrow and cultured in 10-cm dish. Another 3 days later, BMMs were seeded at a density of 4 × 10^4 cells/well into the 24-well plate containing the calvarial OB, and the α-MEM supplemented with 15% FBS, 1% penicillin/streptomycin, 1, 25-dihydroxy vitamin D3 (10 nM; CSN), and PGE2 (1 μM; CSN). After changed every 3 days for 2 times of the culture medium, the cells were then fixed and stained to observe the percent of the positive ALP staining area using a kit according to the manufacturer’s instructions (Beyotime, Shanghai, China). The percent of area was then quantified using ImageJ.

## Nc1nccc2c1ncn2C1C=C(CO)C(O)C1O (centres unmarked) [DZNep, 3-Deazaneplanocin]
[1]
  podosome actin belt formation of osteoclast: promoted the podosome actin belt formation
[2]; 25 nM, 0, 1, 3, 5 days, vs control
  expression of c-FOS and NFATc1 (western blot): further enhanced
[2]; RANKL, 5 days
  c-FOS and NFATc1 expression (western blot), various concentrations: upregulated
[3]
  cytotoxicity on primary BMSC: no cytotoxicity was found
[4]
  osteogenesis in co-culture system (ALP): still preserves the effect of promoting osteogenesis
